Two molecules from patent publication US20040097728A1, “Method for producing anellated tetrahydro-{1h}-triazoles” (priority 2000, published 2004) can be followed below.

For orientation: melting point means the temperature of the solid-liquid transition.

The subject of one series is ABUTH. Nature of the series: greenhouse herbicidal action, post-emergence treatment. In kind it is in vivo, velvet leaf. Particulars: post-emergence method, application rates of 7.8 and 3.9 g of a.s./ha. The text has this:
(§1) The seeds of the test plants were sown separately for each species. For the post-emergence treatment, the test plants were first grown to a height of 3 to 15 cm, depending on the plant habit, and then treated with the active compounds which had been suspened or emulsified in water. To this end, the test plants were either sown directly and grown in the same containers, or they were first grown separately as seedlings and transplanted into the test containers a few days prior to the treatment. The application rates for the post-emergence treatments were 62.5, 31.2, 15.6, 7.8 and 3.9 g of a.s./ha. Depending on the species, the plants were kept at 10-25° C. or 20-35° C. The test period extended over 2 to 4 weeks. During this time, the plants were tended, and their response to the individual treatments was evaluated. Evaluation was carried out using a scale from 0 to 100. 100 means no emergence of the plants, or complete destruction of at least the above-ground parts, and O means no damage, or normal course of growth. The plants used in the greenhouse experiments were of the following species: [table]

For another series, the system named is AMARE. The description is as above. In kind it is in vivo, common amaranth. Particulars: post-emergence method, application rates of 7.8 and 3.9 g of a.s./ha.
Text: as §1

Another series relates to CHEAL. Described as above. In kind it is in vivo, lambsquarters (goosefoot). To be noted: post-emergence method, application rates of 7.8 and 3.9 g of a.s./ha.
Text: as §1

In another series the test system is PHBPU. The description is as above. In kind it is in vivo, common morning glory. Particulars: post-emergence method, application rates of 7.8 and 3.9 g of a.s./ha.
Text: as §1

`C#CCOc1cc(-n2c(=O)n3n(c2=S)COCC3)c(F)cc1C#N` [Example 75, 2-[4-Cyano-2-fluoro-5-(propargyloxy)phenyl]-3-thioxotetrahydro-1H-[1,2,4]-triazolo-[1,2-c][1,3,4]-oxadiazin-1-one] yielded a melting point of 226 to 227 °C.

Regarding “2-[4-Chloro-2-fluoro-5-(2-propynyloxy)phenyl]-3-thiotetrahydro-1H-(1,2,4)triazolo[1,2-c][1,3,4]oxadiazin-1-one [Example 5]”, the “herbicidal activity against ABUTH” value in the series with ABUTH is given as “very good”. In the series with AMARE, the “herbicidal activity against AMARE” value is “very good”. Besides, the “herbicidal activity against CHEAL” value in the series with CHEAL is “very good”. The “herbicidal activity against PHPBU” value in the series with PHBPU is recorded as “very good”.
